Reference: patent US11028127B2, “Peptides capable of reactivating p53 mutants” (Yeda Research and Development Co. Ltd., priority 2013, dated 2021)

Experiments:
Assay type in all cases: cell-based
[1] = test system: WI-38 fibroblasts overexpressing R175H p53 (WI38-175); experiment: Crystal violet viability assay; conditions: 48 hours; much more prominent than in mNoxa-i control cells
Experimental: (§1) FIGS. 13A and 13B are bar graphs illustrating the effect of various tested peptides on the viability of cells expressing Mut-p53, as determine by crystal violet assay. WI-38 fibroblasts expressing endogenous WT p53 were infected with retroviruses expressing either mouse Noxa shRNA (WI38-m-Noxa-i) as a nonspecific control or the R175H p53 mutant for stable overexpression of mutant p53 (WI38-175). The cells (WI38-m-Noxa-i or WI38-175) were seeded at 3000 cells per well in 96-well plates. Tested peptides were added to the cells. Different concentrations of etoposide (cytotoxic drug, 4′-Demethyl-epipodophyllotoxin 9-[4,6-O—(R)-ethylidene-beta-D-glucopyranoside], 4′-(dihydrogen phosphate) were used as positive control for cell death and as a standard reference curve to assess the effect of tested peptides. 48 hours after treatment, cells were washed with PBS to exclude dead cells and debris, and cells that remained attached to the plate were stained with crystal-violet for 30 minutes. Crystal violet was removed and cells were washed 4 times with PBS to remove residual crystal violet. Then, the stained cells were dissolved in 10% acetic acid and plates were taken for optical density measurement at 595 nM (optimal for crystal violet). The bar graphs of FIGS. 13A and 13B show the optical density reads at 595 nm, which reflect the number of cells in the plate after treatment, normalized to the non-treated (NT) samples.
(§2) Cells were cultured in 96 wells plates with 2500-4000 cells/well in 0.1 ml and incubated overnight at 37° C. in order to adhere to the plate. Serial dilutions of different peptides (0.5 μg/ml) were added in 0.1 ml aliquots and the plates incubated for additional 48 h at 37° C. Then medium was removed and cell lysis was determined by staining the cells with crystal violet (0.5%) in methanol/water (1:4, v/v), 50 μl each well, for 10 min, followed by 3 washes with PBS. Afterwards, 10% acetic acid (50 μl) was added to each well and shaken for 10 min. Then, automatic plate reading was performed at 595 nm.
(§3) An important indication for the reactivating peptides activity is their effect in-vivo on cancer cells that express Mut-p53. In particular, reactivating peptides that can cause specifically Mut-p53-dependent death of cancer cells, with minimal toxic effects on normal cells are desired. A crystal-violet based viability assay, in which crystal-violet is employed to stain cells that adhere to the plate and therefore the amount of dye is proportional to cell number was used to determine the effect of the various test peptides on Mut-p53-dependent death.
(§4) Cells were plated in 96-well plates, at calibrated density that allows them to grow for 48 hours without reaching confluence. Peptides are added 6 hours later. Different concentrations of etoposide (cytotoxic drug) were used as positive control for cell death and as a standard reference curve to assess the effect of tested peptides. 48 hours after treatment, cells were washed with PBS to exclude dead cells and debris, and cells that remained attached to the plate were stained with crystal-violet for 30 minutes. Crystal-violet was removed and cells were washed with PBS 4 times to eliminate remains of crystal-violet. Then, the stained cells were dissolved in 10% acetic acid and plates were taken for optical density measurement at 595 nM (specific to crystal-violet).
(§5) FIGS. 13A and 13B illustrate a representative experiment of screening performed on 128 synthesized peptides. In this experiment, WI-38 fibroblasts were used. These cells express endogenous WT p53 and were further infected with a virus expressing either mouse Noxa shRNA, as a nonspecific control or the R175H p53 mutant for stable overexpression of mutant p53. Both of these sub-lines (mNoxa or R175H p53) were seeded at 3000 cells per well and treated as described above. […]

[2] = test system: WI-38 fibroblasts expressing mouse Noxa shRNA (WI38-m-Noxa-i); experiment: Crystal violet viability assay; conditions: 48 hours
Experimental: as §1, §2, §3, §4, §5

[3] = test system: Mut-p53-expressing human cancer cell lines; experiment: Crystal violet viability assay on further cell lines; conditions: cell line not stated
Experimental: as §2, §3
Cells were plated in 96-well plates, at calibrated density that allows them to grow for 48 hours without reaching confluence. Peptides are added 6 hours later. […]

YRRLLIGMMWRRRRRRRRRRR [pCAP-68]
reduction in cell numbers, R175H p53 expressing WI-38 cells [1]: toxic effect on both cell sub-lines
effect on cell numbers, mNoxa-i control WI-38 cells [2]: toxic effect on both cell sub-lines
effect on cell viability [3]: massive cell death
